# In PMC5905120, “An innovative immunotherapeutic strategy for ovarian cancer: CLEC10A and glycomimetic peptides” (Journal for Immunotherapy of Cancer, 2018):
# Bridges are numbered along the chain shown (N, C = ends). Roman numbers before positions name the chains, in order. Where no end group is shown, it is not given here.
# Legend:
# DC-SIGN = assay: Solid-phase binding to DC-SIGN; parameters: species or system human; conditions: Fig. 2b
# Experimental: Solid-phase binding assays were performed with streptavidin-, protein A/G-, or Nickel-coated microtiter plates (Pierce). His-tagged or Fc-fusion recombinant receptors (R&D Systems, Minneapolis, MN) were reconstituted in PBS. Sufficient receptors were added to wells to saturate the coating. His-tagged receptors were added to each well at a 5-fold excess over the stated capacity of the Ni coating to minimize non-specific binding of the peptide. Wells were washed three times with binding buffer (25 mM Tris HCl, pH 7.4, 150 mM NaCl, 0.05% Tween-20) to remove unbound receptor and 50 μL of 2 μM biotinylated peptide in binding buffer were added and allowed to incubate for 1 h. The wells were washed four times with binding buffer and then incubated with 50 μL of 1 μg/mL streptavidin conjugated with peroxidase (Sigma-Aldrich) for 1 h. […] After several minutes to allow color development, the reaction was stopped with 50 μL 1 M H3PO4 and absorbance was measured at 450 nm. Bound streptavidin was quantitated by the specific activity of peroxidase (absorbance/ng protein conjugate/min) under the conditions of the assay.
# Solid-phase binding assays were performed with recombinant human receptors. […] After extensive washing, the bound receptor was measured by peroxidase conjugated to a receptor-specific antibody. […]
# [1] = system: peritoneal cells of Balb/c mice; assay: Peritoneal immune cell populations by flow cytometry, healthy Balb/c mice; assay type: in vivo, mouse (Balb/c)
# Experimental: Healthy C57BL/6 male mice, 10 weeks old, were injected subcutaneously with peptides on alternate days. Peritoneal cells were isolated from mice 24 h after dosing by injecting ice cold PBS (containing 3% FBS) into the peritoneal cavity, gently massaging the abdomen, and then collecting the fluid, which was transferred into K2EDTA-treated tubes for evaluation of specific biomarkers. Cells from three mice in each group were pooled, counted and divided among FACS tubes (1 × 10^6 cells per tube). Cells were washed once in PBS containing 3% FBS, then stained with 0.25 to 1 μg of fluorescently conjugated antibody per 10^6 cells in 100 μL of buffer as recommended by the manufacturer (Table 2).
# Cells were incubated with the antibodies for 30 min at 4 °C in the dark. Following staining, the cells were washed two times with PBS/3% FBS and immediately analyzed with a MACSQuant flow cytometer (Miltenyi Biotech, Inc., San Diego, CA). Compensation was performed using single stain tubes for each color present in the analysis as well as an unstained control sample. Collection of flow cytometric data and analysis with FlowJo software, version 10.0.6 (FlowJo, LLC, Ashland, OR) were performed by Biomodels LLC (Watertown, MA).
# To examine whether increases occurred in mature immune cells, peritoneal cells from Balb/c and C57BL/6 mice were analyzed by flow cytometry after cells were stained with the markers listed in Table 2. […] To explore this observation more extensively, svL4 or sv6D was injected into C57BL/6 mice on day 0, 2 or 4. Peritoneal cells were examined by flow cytometry 24 h after each injection. Shown in Fig. 5 are results expressed as cell counts for F4/80 CD11b CD86 (mature, active macrophages); CD11c (DCs); CD11c CD 86 (activated DCs); CD4 CD69 (activated T cells); CD8 CD69 (activated cytotoxic T cells); NK1.1 CD3^+ CD69 (activated NKT cells); NK1.1 CD3^− CD69 (activated NK cells); CD19 (B cells); and CD19 CD73 CD80 CD273 (memory B cells). The numbers of these mature, activated cells continued to increase with each injection.
# [2] = system: monocytes in the peritoneal cavity of RAG^—/— mice; assay: Peritoneal monocyte response in RAG^—/— mice; assay type: in vivo, mouse (RAG^—/—); conditions: s.c. injection (data not shown)
# Experimental: To determine whether the target(s) for svL4 is located on lymphocytes, with subsequent cross-talk signaling to achieve activation of monocytes, an experiment was performed in which svL4 was injected into RAG^—/— mice, which lack activity of rag, the recombination activation gene. The ability to perform recombination to generate antigen-specific antibodies by V(D)J recombination is required for B and T cell precursors to produce functional antigen receptors on their surface, and without a functional rag gene these cells undergo apoptosis.
# [3] = system: peritoneal low FSc and low SSc cells; assay: Peritoneal small-cell population in 4T1 tumor-bearing Balb/c mice; assay type: in vivo, mouse (Balb/c); conditions: 1 nmole/g
# Experimental: After tumors had reached a volume of at least 500 mm^3, the peritoneal population of low FSc and low SSc cells was minimal (Fig. S2a). […] We conclude that this population is possibly progenitor cells and that additional treatments would lead to maturation of this population, as observed with healthy animals.
# Fig. S2. Increase in the population of small cells in the peritoneal cavity of Balb/c mice bearing tumors of breast 4T1 cancer cell line. svL4 (1 nmole/g) was injected on day 0 and day 2, with analysis 24 h after each injection. a) Pseudocolor scatter plots of peritoneal cells from untreated or treated mice on day 3, 24 h after the second injection. […] Untreated animals, blue; treated animals, orange. Peritoneal cells from 3 animals were pooled and analyzed in triplicate. c) Histograms of normalized SSc vs. FSc for samples of peritoneal cells from Balb/c mice on day 3, from Fig. S2b, i.e., 24 h after the second injection of svL4. Blue trace, untreated animals; red trace, svL4-treated animals.
substance,measurement,setting,value
"I: VQATQSNQHTPRGGGSKK-NH2 / II: VQATQSNQHTPRGGGSK / III: VQATQSNQHTPRGGGS / IV: VQATQSNQHTPRGGGS (amide I:17-IV:C, I:18-II:C, II:17-III:C) [svL4]",binding to DC-SIGN,DC-SIGN,did not bind significantly
same,"increases in macrophages, DCs, T cells and NK cells","[1]; 1 nmole/g s.c., 24 h after a single injection",Several-fold increases
same,CD90.2^+ fraction of small cells,[1]; after treatment with svL4,about 15%
same,increase in mature immune cells,[1]; within 24 h after a single injection (data not shown),approximately 2 fold
same,"small cells (low FSc, low SSc)","[1]; within 24 h after injection, healthy Balb/c, Fig. S1b",decreased to a minimal level
same,response of peritoneal monocytes vs. C57BL/6,[2],essentially the same as that in C57BL/6 mice
same,size of small-cell population,[3]; 24 h after first injection,not changed significantly
same,CD3^+ fraction of small cells,[3]; after second injection,0.5%
same,CD19^+ fraction of small cells,[3]; after second injection,about 3%
same,size of small-cell population,[3]; within 24 h after second injection,dramatic increase
